Patent US20100267561A1, “HERBICIDAL PYRIDAZINONE DERIVATIVES” (priority 2007, published 2010)
Like-named read-outs stand apart in the source and are kept apart here.

Assays:
Assay in all cases: Test B pre-/postemergence plant response
Assay type in all cases: in vivo
[1] = tested on: large crabgrass (Digitaria sanguinalis); details: for pest or weed control at 31 g/ha: 31 g ai/ha; for pest or weed control at 62 g/ha: 62 g ai/ha, 100 complete control
Outline: (§1)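 Preemergence and postemergence (plants 2-18 cm, 1- to 4-leaf stage) applications used test chemicals in a non-phytotoxic solvent with surfactant. Plants were held in a greenhouse 13 to 15 days, then rated visually against controls on a 0-100 scale (0 no effect, 100 complete control).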

[2] = tested on: catchweed bedstraw (Galium aparine); details: Preemergence; for Galium plant response rating: scale 0 to 100
Outline: as §1

corn (Zea mays) = details: for Corn plant response rating (crop injury, 0 = no effect, 100 = complete kill) at 31 g/ha: 31 g ai/ha; for Corn plant response rating (crop injury, 0 = no effect, 100 = complete kill) at 62 g/ha: 62 g ai/ha, 100 complete control
Outline: as §1

[3] = tested on: morningglory (Ipomoea coccinea); details: for pest or weed control at 31 g/ha / pest or weed control at 62 g/ha: Ipomoea, read-out: Plant response rating, Morningglory; for pest or weed control at 31 g/ha: 31 g ai/ha; for pest or weed control at 62 g/ha: 62 g ai/ha, 100 complete control
Outline: as §1

[4] = tested on: velvetleaf (Abutilon theophrasti); details: for pest or weed control at 31 g/ha / pest or weed control at 62 g/ha: Abutilon theophrasti, read-out: Plant response rating, Velvetleaf; for pest or weed control at 31 g/ha: 31 g ai/ha; for pest or weed control at 62 g/ha: 62 g ai/ha, 100 complete control
Outline: as §1

[5] = tested on: common (oilseed) sunflower (Helianthus annuus); details: Preemergence; for Sunflower plant response rating: scale 0 to 100
Outline: as §1

[6] = tested on: wheat (Triticum aestivum); details: for plant injury at 31 g/ha / plant injury at 62 g/ha: Triticum aestivum, read-out: Plant response rating, Wheat; for plant injury at 31 g/ha: 31 g ai/ha; for plant injury at 62 g/ha: 62 g ai/ha, 100 complete control
Outline: as §1

[7] = tested on: bermudagrass (Cynodon dactylon)
Outline: as §1

[8] = 8 g ai/ha, postemergence, 0-100 scale
[9] = Preemergence, 8 g ai/ha, scale 0 to 100
[10] = Preemergence, 16 g ai/ha, scale 0 to 100
[11] = 16 g ai/ha, postemergence, 0-100 scale
[12] = post-emergence, Postemergence, scale 0 to 100
[13] = post-emergence, Postemergence, scale 0 to 100, 0 no effect
[14] = pre-emergence, Preemergence, scale 0 to 100 (0 no effect, 100 complete control)
[15] = pre-emergence, Preemergence, 0 to 100 scale, 0 no effect

In the case of Cc1nn(C)c(=O)c(-n2nc(-c3ccc(C(F)(F)F)cc3)cc2C)c1O [Compound 75, 5-hydroxy-2,6-dimethyl-4-[5-methyl-3-[4-(trifluoromethyl)phenyl]-1H-pyrazol-1-yl]-3(2H)-pyridazinone], the “Crabgrass, Large plant response rating” value [1, 8] is reported as 0, the pest or weed control at 16 g/ha ([1]; Digitaria sanguinalis, post-emergence, Postemergence, 16 g ai/ha, scale 0 to 100, read-out: Plant response rating, Crabgrass, Large) is reported as 0% and the pest or weed control at 31 g/ha ([1]; Digitaria sanguinalis, post-emergence, Postemergence, scale 0 to 100, read-out: Plant response rating, Crabgrass, Large) is reported as 30%. The pest or weed control at 62 g/ha ([1]; Digitaria sanguinalis, post-emergence, Postemergence, scale 0 to 100, 0 no effect, read-out: Plant response rating, Crabgrass, Large) was 60%, the pest or weed control at 31 g/ha ([1]; Digitaria sanguinalis, pre-emergence, Preemergence, scale 0 to 100 (0 no effect, 100 complete control), read-out: Plant response rating, Crabgrass, Large) was 25% and the pest or weed control at 62 g/ha ([1]; Digitaria sanguinalis, pre-emergence, Preemergence, 0 to 100 scale, 0 no effect, read-out: Plant response rating, Crabgrass, Large) was 55%. The “Crabgrass, Large plant response rating” value [1, 9] was 0, the “Crabgrass, Large plant response rating” value [1, 10] was 0 and the pest or weed control at 31 g/ha ([2]; Galium aparine, pre-emergence, 31 g ai/ha, scale 0 to 100 (0 no effect, 100 complete control), read-out: Plant response rating, Galium) was 0%. The pest or weed control at 62 g/ha ([2]; Galium aparine, pre-emergence, 62 g ai/ha, 0 to 100 scale, 0 no effect, 100 complete control, read-out: Plant response rating, Galium) was 0%, the “Galium plant response rating” value ([2]; 8 g ai/ha) was 0 and the “Galium plant response rating” value ([2]; 16 g ai/ha) was 0. The “Corn plant response rating” value (corn (Zea mays); [8]) was 0, the “Corn plant response rating” value (corn (Zea mays); [9]) was 0 and the “Corn plant response rating” value (corn (Zea mays); [10]) was 0. The Corn plant response rating (crop injury, 0 = no effect, 100 = complete kill) at 16 g/ha (corn (Zea mays); Zea mays, post-emergence, Postemergence, 16 g ai/ha, scale 0 to 100) was 50%, the Corn plant response rating (crop injury, 0 = no effect, 100 = complete kill) at 31 g/ha (corn (Zea mays); Zea mays, post-emergence, Postemergence, scale 0 to 100) was 90% and the Corn plant response rating (crop injury, 0 = no effect, 100 = complete kill) at 62 g/ha (corn (Zea mays); Zea mays, post-emergence, Postemergence, scale 0 to 100, 0 no effect) was 100%. For the same molecule, the Corn plant response rating (crop injury, 0 = no effect, 100 = complete kill) at 31 g/ha (corn (Zea mays); Zea mays, pre-emergence, Preemergence, scale 0 to 100 (0 no effect, 100 complete control)) was 75%, the Corn plant response rating (crop injury, 0 = no effect, 100 = complete kill) at 62 g/ha (corn (Zea mays); Zea mays, pre-emergence, Preemergence, 0 to 100 scale, 0 no effect) was 95% and the “Morningglory plant response rating” value [3, 8] was 0. The “Morningglory plant response rating” value [3, 11] was 0, the pest or weed control at 31 g/ha [3, 12] was 0% and the pest or weed control at 62 g/ha [3, 13] was 0%. For the same molecule, the pest or weed control at 31 g/ha [3, 14] was 0%, the pest or weed control at 62 g/ha [3, 15] was 0% and the “Morningglory plant response rating” value [3, 9] was 0. The “Morningglory plant response rating” value [3, 10] was 0, the “Velvetleaf plant response rating” value [4, 8] was 0 and the “Velvetleaf plant response rating” value [4, 11] was 0. For the same molecule, the pest or weed control at 31 g/ha [4, 12] was 0%, the pest or weed control at 62 g/ha [4, 13] was 0% and the pest or weed control at 31 g/ha [4, 14] was 0%. The pest or weed control at 62 g/ha [4, 15] was 0%, the “Velvetleaf plant response rating” value [4, 9] was 0 and the “Velvetleaf plant response rating” value [4, 10] was 0. The pest or weed control at 31 g/ha ([5]; Helianthus annuus, pre-emergence, 31 g ai/ha, scale 0 to 100 (0 no effect, 100 complete control), read-out: Plant response rating, Sunflower) was 0%, the pest or weed control at 62 g/ha ([5]; Helianthus annuus, pre-emergence, 62 g ai/ha, 0 to 100 scale, 0 no effect, 100 complete control, read-out: Plant response rating, Sunflower) was 0% and the “Sunflower plant response rating” value ([5]; 8 g ai/ha) was 0. The “Sunflower plant response rating” value ([5]; 16 g ai/ha) was 0, the “Wheat plant response rating” value [6, 8] was 0 and the “Wheat plant response rating” value [6, 11] was 20. For the same molecule, the “Wheat plant response rating” value [6, 10] was 0, the plant injury at 31 g/ha [6, 12] was 70% and the plant injury at 62 g/ha [6, 13] was 85%. The plant injury at 31 g/ha [6, 14] was 20%, the plant injury at 62 g/ha [6, 15] was 45% and the “Bermudagrass plant response rating” value [7, 8] was 65. The pest or weed control at 16 g/ha ([7]; Cynodon dactylon, post-emergence, Postemergence, 16 g ai/ha, scale 0 to 100, read-out: Plant response rating, Bermudagrass) was 80%, the pest or weed control at 31 g/ha ([7]; Cynodon dactylon, post-emergence, Postemergence, 31 g ai/ha, scale 0 to 100, read-out: Plant response rating, Bermudagrass) was 85% and the pest or weed control at 62 g/ha ([7]; Cynodon dactylon, post-emergence, Postemergence, 62 g ai/ha, scale 0 to 100, 0 no effect, 100 complete control, read-out: Plant response rating, Bermudagrass) was 90%.
